Like-named read-outs stand apart in the source and are kept apart here.
Legend:
human N-type Ca channel [1] = target: T1, human N-type Ca channel (Homo sapiens, UniProt Q00975); assay: Calcium influx assay (FDSS), KCl depolarization, Fluo8 dye; format: cell-based; parameters: host or cells: HEK 293
Outline: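 HEK293 cells stably expressing the human N-type Ca channel were loaded with Fluo8 and washed in choline-based buffer (pH 7.2, 2 mM CaCl2, 2 mM KCl). Cells were preincubated with serially diluted compound for 15 min in the dark. Ca influx was then recorded by fluorescence after depolarization with 100 mM KCl.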

human N-type Ca channel [2] = target: T1, human N-type Ca channel; assay: Electrophysiological response, QPatch (depolarization -80 mV to +20 mV)
[3] = HEK 293 cells expressing human N-type Ca channel, 100 mM KCl, read-out: N Type IC50 Data FDSS
[4] = N Type IC50 Data Qpatch Pulse=1, Pulse=1, concentration range 0.3-10 µM
[5] = N Type IC50 Data Qpatch Pulse=15, Pulse=15, concentration range 0.3-10 µM
[6] = Pulse=1, concentration range 0.01-0.3 µM
[7] = Pulse=15, concentration range 0.01-0.3 µM
[8] = read-out: N Type IC50 Data Qpatch Pulse=15, Pulse=15, concentration range 0.01-1 µM
[9] = N Type IC50 Data Qpatch Pulse=1, Pulse=1, concentration range 0.01-0.3 µM
[10] = read-out: Qpatch Pulse=1 (percent inhibition)
[11] = read-out: Qpatch Pulse=15 (percent inhibition)
[12] = N Type IC50 Data Qpatch Pulse=1, Pulse=1, concentration range 0.01-1 µM
[13] = read-out: N Type IC50 Data Qpatch Pulse=1, Pulse=1, concentration range 0.01-1 µM

T1 sequence (Q00975 whole entry): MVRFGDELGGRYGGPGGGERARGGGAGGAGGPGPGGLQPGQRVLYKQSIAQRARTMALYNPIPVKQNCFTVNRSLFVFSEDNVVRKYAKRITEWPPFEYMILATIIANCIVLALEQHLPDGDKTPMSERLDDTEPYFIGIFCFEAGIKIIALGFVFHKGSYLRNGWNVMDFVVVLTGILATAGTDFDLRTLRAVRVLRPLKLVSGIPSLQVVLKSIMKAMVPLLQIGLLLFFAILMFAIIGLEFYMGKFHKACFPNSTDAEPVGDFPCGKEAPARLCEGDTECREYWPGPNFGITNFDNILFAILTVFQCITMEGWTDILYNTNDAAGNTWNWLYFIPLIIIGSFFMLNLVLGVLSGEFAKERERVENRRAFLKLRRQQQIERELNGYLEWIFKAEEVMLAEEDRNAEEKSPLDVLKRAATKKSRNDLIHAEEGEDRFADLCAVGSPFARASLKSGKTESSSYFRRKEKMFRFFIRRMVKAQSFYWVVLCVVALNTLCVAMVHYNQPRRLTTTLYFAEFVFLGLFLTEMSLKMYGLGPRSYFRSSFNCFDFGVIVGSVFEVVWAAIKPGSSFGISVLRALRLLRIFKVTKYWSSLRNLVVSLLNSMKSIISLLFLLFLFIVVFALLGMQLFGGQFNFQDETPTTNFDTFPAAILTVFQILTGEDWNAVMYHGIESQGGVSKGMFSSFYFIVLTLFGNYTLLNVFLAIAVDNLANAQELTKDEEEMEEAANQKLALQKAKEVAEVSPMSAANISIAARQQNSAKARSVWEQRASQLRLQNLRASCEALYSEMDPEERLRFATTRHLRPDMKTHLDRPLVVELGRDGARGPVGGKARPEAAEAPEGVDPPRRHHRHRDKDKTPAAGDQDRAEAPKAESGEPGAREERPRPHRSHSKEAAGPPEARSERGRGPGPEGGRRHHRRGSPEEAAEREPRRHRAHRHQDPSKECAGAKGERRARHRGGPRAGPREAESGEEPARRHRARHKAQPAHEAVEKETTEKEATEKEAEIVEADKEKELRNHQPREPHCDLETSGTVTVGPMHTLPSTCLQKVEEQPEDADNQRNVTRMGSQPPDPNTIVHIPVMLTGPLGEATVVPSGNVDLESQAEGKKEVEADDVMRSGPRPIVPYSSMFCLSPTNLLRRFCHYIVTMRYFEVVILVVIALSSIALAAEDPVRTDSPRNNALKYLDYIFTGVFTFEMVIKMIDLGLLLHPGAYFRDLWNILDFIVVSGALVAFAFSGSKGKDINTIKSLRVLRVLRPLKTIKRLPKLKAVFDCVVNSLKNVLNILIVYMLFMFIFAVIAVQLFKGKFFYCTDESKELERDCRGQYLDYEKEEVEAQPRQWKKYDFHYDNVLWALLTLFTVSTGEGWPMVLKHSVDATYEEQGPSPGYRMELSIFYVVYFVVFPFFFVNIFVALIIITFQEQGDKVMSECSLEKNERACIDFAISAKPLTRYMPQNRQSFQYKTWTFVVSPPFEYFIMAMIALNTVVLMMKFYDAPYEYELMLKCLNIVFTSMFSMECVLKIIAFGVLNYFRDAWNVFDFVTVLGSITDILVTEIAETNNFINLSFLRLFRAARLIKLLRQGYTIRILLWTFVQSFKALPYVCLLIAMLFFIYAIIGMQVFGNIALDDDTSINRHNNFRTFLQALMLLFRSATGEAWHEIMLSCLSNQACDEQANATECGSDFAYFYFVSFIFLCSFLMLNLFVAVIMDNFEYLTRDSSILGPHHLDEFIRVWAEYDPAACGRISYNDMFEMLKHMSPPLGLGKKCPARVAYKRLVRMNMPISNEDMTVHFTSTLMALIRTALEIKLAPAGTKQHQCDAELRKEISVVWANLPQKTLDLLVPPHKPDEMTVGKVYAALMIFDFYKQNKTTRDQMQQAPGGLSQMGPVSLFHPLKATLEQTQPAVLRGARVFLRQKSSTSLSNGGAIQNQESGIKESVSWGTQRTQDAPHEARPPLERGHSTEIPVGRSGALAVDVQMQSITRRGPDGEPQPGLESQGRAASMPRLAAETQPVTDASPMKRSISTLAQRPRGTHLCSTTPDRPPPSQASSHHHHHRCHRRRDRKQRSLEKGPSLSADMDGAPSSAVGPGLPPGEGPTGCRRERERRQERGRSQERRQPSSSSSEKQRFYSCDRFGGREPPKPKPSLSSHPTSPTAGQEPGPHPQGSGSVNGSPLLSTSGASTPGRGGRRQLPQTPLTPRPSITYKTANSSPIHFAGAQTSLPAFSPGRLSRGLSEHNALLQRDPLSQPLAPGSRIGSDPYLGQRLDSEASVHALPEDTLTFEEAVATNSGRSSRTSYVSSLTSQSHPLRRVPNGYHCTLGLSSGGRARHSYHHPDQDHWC
T1 sequence (P54284 whole entry partner): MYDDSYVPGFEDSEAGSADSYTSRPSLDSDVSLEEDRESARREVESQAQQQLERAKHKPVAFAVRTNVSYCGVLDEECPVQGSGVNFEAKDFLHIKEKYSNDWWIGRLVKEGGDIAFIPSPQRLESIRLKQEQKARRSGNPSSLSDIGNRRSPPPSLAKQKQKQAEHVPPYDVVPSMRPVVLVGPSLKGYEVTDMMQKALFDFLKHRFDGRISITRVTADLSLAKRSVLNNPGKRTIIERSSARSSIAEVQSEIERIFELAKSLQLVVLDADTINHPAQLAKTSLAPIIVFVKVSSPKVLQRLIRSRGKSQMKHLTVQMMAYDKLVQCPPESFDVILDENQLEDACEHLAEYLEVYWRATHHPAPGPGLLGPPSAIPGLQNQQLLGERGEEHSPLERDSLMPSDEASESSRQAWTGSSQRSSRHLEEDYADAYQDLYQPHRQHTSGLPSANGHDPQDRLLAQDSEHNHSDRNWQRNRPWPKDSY
T1 sequence (P54289 25-956 partner limits assumed): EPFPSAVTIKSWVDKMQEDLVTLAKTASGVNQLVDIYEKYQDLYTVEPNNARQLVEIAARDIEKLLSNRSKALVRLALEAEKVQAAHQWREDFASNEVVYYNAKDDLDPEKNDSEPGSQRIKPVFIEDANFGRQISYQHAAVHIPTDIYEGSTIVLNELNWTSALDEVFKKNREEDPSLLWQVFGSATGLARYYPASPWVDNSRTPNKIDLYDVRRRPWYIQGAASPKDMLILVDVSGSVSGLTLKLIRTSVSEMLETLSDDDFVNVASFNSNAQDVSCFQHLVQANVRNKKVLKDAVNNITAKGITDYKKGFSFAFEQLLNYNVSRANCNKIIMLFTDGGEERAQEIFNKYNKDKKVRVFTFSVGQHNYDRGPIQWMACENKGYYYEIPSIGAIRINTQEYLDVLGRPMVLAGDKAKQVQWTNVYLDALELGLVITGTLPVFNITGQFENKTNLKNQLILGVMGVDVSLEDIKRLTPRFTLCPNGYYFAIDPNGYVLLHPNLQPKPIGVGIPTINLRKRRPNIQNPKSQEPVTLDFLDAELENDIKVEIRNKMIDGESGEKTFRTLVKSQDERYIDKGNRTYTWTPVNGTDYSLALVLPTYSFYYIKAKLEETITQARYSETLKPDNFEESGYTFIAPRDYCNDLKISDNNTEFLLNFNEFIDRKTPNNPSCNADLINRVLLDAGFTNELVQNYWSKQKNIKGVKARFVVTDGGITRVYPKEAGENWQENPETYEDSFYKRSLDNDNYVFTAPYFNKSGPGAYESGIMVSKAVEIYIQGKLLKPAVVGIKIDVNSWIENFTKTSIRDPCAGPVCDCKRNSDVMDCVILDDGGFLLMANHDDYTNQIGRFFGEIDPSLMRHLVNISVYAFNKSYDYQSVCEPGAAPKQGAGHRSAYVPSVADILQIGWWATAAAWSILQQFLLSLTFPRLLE
T1 sequence (P54289 957-1103 partner limits assumed): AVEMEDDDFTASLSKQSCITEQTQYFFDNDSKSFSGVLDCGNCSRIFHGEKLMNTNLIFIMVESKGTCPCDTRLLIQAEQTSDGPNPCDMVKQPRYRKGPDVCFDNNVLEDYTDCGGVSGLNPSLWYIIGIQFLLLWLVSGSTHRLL

Row | IC50 (human N-type Ca channel [1]; [3]) [nM] | IC50 (human N-type Ca channel [2]; [5]) [nM] | IC50 (human N-type Ca channel [2]; [8]) [nM] | Structure (SMILES) | also measured
1 | 201 | 2800 |  | COc1ccccc1-c1nc(C2CC(C)(C)OC(C)(C)C2)cn1-c1ccc(C#N)c(F)c1 [Compound 81, 2-fluoro-4-(2-(2-methoxyphenyl)-4-(2,2,6,6-tetramethyltetrahydro-2H-pyran-4-yl)-1H-imidazol-1-yl) benzonitrile] | IC50 (human N-type Ca channel [2]; [4]): 6700 nM
2 | 3260 |  |  | COc1ncccc1-c1nc(C2CC(C)(C)OC(C)(C)C2)cn1-c1cc(F)c(C#N)c(F)c1 [Compound 82, 2,6-difluoro-4-(2-(2-methoxypyridin-3-yl)-4-(2,2,6,6-tetramethyltetrahydro-2H-pyran-4-yl)-1H-imidazol-1-yl) benzonitrile] | N Type IC50 Data Qpatch Pulse=1 (human N-type Ca channel [2]; [6]): poor fit(0.01-0.3 µM); N Type IC50 Data Qpatch Pulse=15 (human N-type Ca channel [2]; [7]): poor fit(0.01-0.3 µM)
3 |  |  |  | COc1ccccc1-c1nc(C2CC(C)(C)OC(C)(C)C2)cn1-c1c(F)cc(C#N)cc1F [Compound 83, 3,5-difluoro-4-(2-(2-methoxyphenyl)-4-(2,2,6,6-tetramethyltetrahydro-2H-pyran-4-yl)-1H-imidazol-1-yl)benzonitrile] | IC50 (human N-type Ca channel [1]): 49 nM; N Type IC50 Data Qpatch Pulse=1 (human N-type Ca channel [2]; [6]): poor fit(0.01-0.3 µM); N Type IC50 Data Qpatch Pulse=15 (human N-type Ca channel [2]; [7]): poor fit(0.01-0.3 µM)
4 | 362 |  | > 1000 | COc1ncccc1-c1nc(C2CC(C)(C)OC(C)(C)C2)cn1-c1ccc(Cl)c(C#N)c1 [Compound 84, 2-chloro-5-(2-(2-methoxypyridin-3-yl)-4-(2,2,6,6-tetramethyltetrahydro-2H-pyran-4-yl)-1H-imidazol-1-yl)benzonitrile] | 
5 | 6480 |  | > 1000 | COc1ccc(-n2cc(C3CC(C)(C)OC(C)(C)C3)nc2-c2cccnc2OC)cc1C#N [Compound 85, 2-methoxy-5-(2-(2-methoxypyridin-3-yl)-4-(2,2,6,6-tetramethyltetrahydro-2H-pyran-4-yl)-1H-imidazol-1-yl)benzonitrile] | 
6 | 1300 |  | > 1000 | COc1ncncc1-c1nc(C2CC(C)(C)OC(C)(C)C2)cn1-c1ccc(C#N)cc1 [Compound 86, 4-(2-(4-methoxypyrimidin-5-yl)-4-(2,2,6,6-tetramethyltetrahydro-2H-pyran-4-yl)-1H-imidazol-1-yl)benzonitrile] | 
7 | 6200 |  |  | COc1nccnc1-c1nc(C2CC(C)(C)OC(C)(C)C2)cn1-c1ccc(C#N)cc1 [Compound 87, 4-(2-(3-methoxypyrazin-2-yl)-4-(2,2,6,6-tetramethyltetrahydro-2H-pyran-4-yl)-1H-imidazol-1-yl)benzonitrile] | N Type IC50 Data Qpatch Pulse=1 (human N-type Ca channel [2]; [6]): poor fit(0.01-0.3 µM); N Type IC50 Data Qpatch Pulse=15 (human N-type Ca channel [2]; [7]): poor fit(0.01-0.3 µM)
8 | 2170 |  |  | COc1nccnc1-c1nc(C2CC(C)(C)OC(C)(C)C2)cn1-c1ccc(C#N)c(F)c1 [Compound 88, 2-fluoro-4-(2-(3-methoxypyrazin-2-yl)-4-(2,2,6,6-tetramethyltetrahydro-2H-pyran-4-yl)-1H-imidazol-1-yl)benzonitrile] | IC50 (human N-type Ca channel [2]; [9]): 349 nM; N Type IC50 Data Qpatch Pulse=15 (human N-type Ca channel [2]; [7]): poor fit(0.01-0.3 µM)
9 | 205 |  |  | CCOc1ncccc1-c1nc(C2CC(C)(C)OC(C)(C)C2)cn1-c1ccc(C#N)c(F)c1 [Compound 89, 4-(2-(2-ethoxypyridin-3-yl)-4-(2,2,6,6-tetramethyltetrahydro-2H-pyran-4-yl)-1H-imidazol-1-yl)-2-fluorobenzonitrile] | IC50 (human N-type Ca channel [2]; [9]): 517 nM; N Type IC50 Data Qpatch Pulse=15 (human N-type Ca channel [2]; [7]): poor fit(0.01-0.3 µM)
10 | 120 |  |  | COc1ccccc1-c1nc(C2CC(C)(C)OC(C)(C)C2)c(C)n1-c1ccc(Cl)cc1 [Compound 90, 1-(4-chlorophenyl)-2-(2-methoxyphenyl)-5-methyl-4-(2,2,6,6-tetramethyltetrahydro-2H-pyran-4-yl)-1H-imidazole] | N Type IC50 Data Qpatch Pulse=1 (human N-type Ca channel [2]; [6]): poor fit(0.01-0.3 µM); N Type IC50 Data Qpatch Pulse=15 (human N-type Ca channel [2]; [7]): poor fit(0.01-0.3 µM)
11 | 1430 |  |  | COc1ncccc1-c1nc(C2CC(C)(C)OC(C)(C)C2)c(Cl)n1-c1ccc(C#N)cc1 [Compound 91, 4-(5-chloro-2-(2-methoxypyridin-3-yl)-4-(2,2,6,6-tetramethyltetrahydro-2H-pyran-4-yl)-1H-imidazol-1-yl)benzonitrile] | inhibition at 10 µM (human N-type Ca channel [2]; [10]): 58%; inhibition at 10 µM (human N-type Ca channel [2]; [11]): 62%
12 | 41 |  |  | COc1ncccc1-c1nc(C2CC(C)(C)OC(C)(C)C2)c(Cl)n1-c1ccc(F)cc1 [Compound 92, 3-(5-chloro-1-(4-fluorophenyl)-4-(2,2,6,6-tetramethyltetrahydro-2H-pyran-4-yl)-1H-imidazol-2-yl)-2-methoxypyridine] | IC50 (human N-type Ca channel [2]; [12]): 253 nM; IC50 (human N-type Ca channel [2]; N Type IC50 Data Qpatch Pulse=15, Pulse=15, concentration range 0.01-1 µM): 269 nM
13 | 551 |  | > 1000 | COc1ccccc1-c1nc(C2CC(C)(C)OC(C)(C)C2)cn1S(=O)(=O)C(F)(F)F [Compound 94, 2-(2-methoxyphenyl)-4-(2,2,6,6-tetramethyltetrahydro-2H-pyran-4-yl)1((trifluoromethyl)sulfonyl)-1H-imidazole] | IC50 (human N-type Ca channel [2]; [13]): > 1000 nM
14 | 10000 |  | > 1000 | COc1ccccc1-c1nc(C2CC(C)(C)OC(C)(C)C2)cn1S(=O)(=O)C1CC1 [Compound 95, 1-(cyclopropylsulfonyl)-2-(2-methoxyphenyl)-4-(2,2,6,6-tetramethyltetrahydro-2H-pyran-4-yl)-1H-imidazole] | IC50 (human N-type Ca channel [2]; [13]): > 1000 nM
15 | 515 | 3080 |  | COc1ccccc1-c1nc(C2CC(C)(C)OC(C)(C)C2)cn1S(=O)(=O)c1ccc(Cl)cc1 [Compound 97, 1-((4-chlorophenyl)sulfonyl)-2-(2-methoxyphenyl)-4-(2,2,6,6-tetramethyltetrahydro-2H-pyran-4-yl)-1H-imidazole] | 
16 | 692 | 3600 |  | COc1ccccc1-c1nc(C2CC(C)(C)OC(C)(C)C2)cn1S(=O)(=O)c1ccc(F)cc1 [Compound 98, 1-((4-fluorophenyl)sulfonyl)-2-(2-methoxyphenyl)-4-(2,2,6,6-tetramethyltetrahydro-2H-pyran-4-yl)-1H-imidazol,] | IC50 (human N-type Ca channel [2]; [4]): 9020 nM
17 | 10900 |  | > 1000 | COc1ccccc1-c1nc(C2CC(C)(C)OC(C)(C)C2)cn1Cc1ccc(C#N)cc1 [Compound 99, 4-((2-(2-methoxyphenyl)-4-(2,2,6,6-tetramethyltetrahydro-2H-pyran-4-yl)-1H-imidazol-1-yl)methyl)benzonitrile] | IC50 (human N-type Ca channel [2]; [13]): > 1000 nM
18 | 3580 |  | > 1000 | COc1ccccc1-c1nc(C2CC(C)(C)OC(C)(C)C2)cn1Cc1cccc(C#N)c1 [Compound 101, 3-((2-(2-methoxyphenyl)-4-(2,2,6,6-tetramethyltetrahydro-2H-pyran-4-yl)-1H-imidazol-1-yl)methyl) benzonitrile] | IC50 (human N-type Ca channel [2]; [12]): > 1000 nM
19 | 37 | 1740 |  | COc1ccccc1-c1nc(C2(O)CC(C)(C)OC(C)(C)C2)cn1-c1ccc(Cl)cc1 [Compound 102, 4-(1-(4-chlorophenyl)-2-(2-methoxyphenyl)-1H-imidazol-4-yl)-2,2,6,6-tetramethyltetrahydro-2H-pyran-4-ol] | inhibition at 10 µM (human N-type Ca channel [2]; [10]): 48%
20 | 367 |  |  | COc1ccncc1-c1nc(C2(O)CC(C)(C)OC(C)(C)C2)cn1-c1ccc(Cl)cc1 [Compound 103, 4-(1-(4-chlorophenyl)-2-(4-methoxypyridin-3-yl)-1H-imidazol-4-yl)-2,2,6,6-tetramethyltetrahydro-2H-pyran-4-ol] | IC50 (human N-type Ca channel [2]; [4]): 4300 nM; inhibition at 10 µM (human N-type Ca channel [2]; [11]): 31%
21 | 300 | 3820 | > 1000 | COc1ncccc1-c1nc(C2(O)CC(C)(C)OC(C)(C)C2)cn1-c1ccc(Cl)cc1 [Compound 105, 4-(1-(4-chlorophenyl)-2-(2-methoxypyridin-3-yl)-1H-imidazol-4-yl)-2,2,6,6-tetramethyltetrahydro-2H-pyran-4-ol] | IC50 (human N-type Ca channel [2]; [12]): 964 nM; IC50 (human N-type Ca channel [2]; [4]): 8300 nM
22 | 430 | 2420 |  | COc1ccccc1-c1nc(C2(O)CC(C)(C)OC(C)(C)C2)cn1-c1ccc(F)c(F)c1 [Compound 107, 4-(1-(3,4-difluorophenyl)-2-(2-methoxyphenyl)-1H-imidazol-4-yl)-2,2,6,6-tetramethyltetrahydro-2H-pyran-4-ol] | IC50 (human N-type Ca channel [2]; [4]): 3530 nM
23 | 394 | 7400 |  | COc1ncccc1-c1nc(C2(O)CC(C)(C)OC(C)(C)C2)cn1-c1ccc(F)c(F)c1 [Compound 108, 4-(1-(3,4-difluorophenyl)-2-(2-methoxypyridin-3-yl)-1H-imidazol-4-yl)-2,2,6,6-tetramethyltetrahydro-2H-pyran-4-ol] | IC50 (human N-type Ca channel [2]; [4]): 5800 nM

Row | Structure (SMILES) | IC50 (human N-type Ca channel [1]; [3]) [nM] | IC50 (human N-type Ca channel [2]; [5]) [nM] | IC50 (human N-type Ca channel [2]; [8]) [nM] | also measured
24 | COc1ncccc1-c1nc(C2CC(C)(C)OC(C)(C)C2)c(Cl)n1-c1ccc(Cl)cc1 [Compound 93, 3-(5-chloro-1-(4-chlorophenyl)-4-(2,2,6,6-tetramethyltetrahydro-2H-pyran-4-yl)-1H-imidazol-2-yl)-2-methoxypyridine] |  | 1800 |  | IC50 (human N-type Ca channel [1]): 150 nM; IC50 (human N-type Ca channel [2]; [4]): 6500 nM
25 | COc1ccccc1-c1nc(C2CC(C)(C)OC(C)(C)C2)cn1S(=O)(=O)CC(C)C [Compound 96, 1-(isobutylsulfonyl)-2-(2-methoxyphenyl)-4-(2,2,6,6-tetramethyltetrahydro-2H-pyran-4-yl)-1H-imidazole] |  | 5400 |  | IC50 (human N-type Ca channel [1]): 768 nM
